Test: Remote loading of carfilzomib precipitate into liposomes (drug and lipid by HPLC after purification)
Type: physicochemical
Conditions: for efficiency of remote loading: 100 g drug/mol HSPC
Protocol: Ammonium sulfate solution was prepared by dissolving ammonium sulfate solid to a final concentration of 250 mM (500 mequivilents of anion/L) no pH adjustment was made to yield a final pH of 5.6. Sodium sulfate solution (250 mM) was prepared by adding 0.35 g sodium sulfate to 10 mL deionized water.
The liposomes were formed by extrusion. Lipids were dissolved in ethanol at a concentration of 500 mM HSPC (591 mg/mL total lipid) at 65° C. and the 9 volumes of the trapping agent solution heated to 65° C. was added to the ethanol/lipid solution also at 65° C. The mixture was vortexed and transferred to a 10 mL thermostatically controlled (65° C.) Lipex Extruder. The liposomes were formed by extruding 10 times through polycarbonate membranes having 0.1 um pores. After extrusion the liposomes were cooled on ice. The transmembrane electrochemical gradient was formed by purification of the liposomes by dialysis in dialysis tubing having a molecular weight cut off of 12,000-14,000. The samples are dialyzed against 5 mM HEPES, 10% sucrose pH 6.5 (stirring at 4° C.) at volume that is 100 fold greater than the sample volume. The dialysate was changed after 2 h then 4 more times after 12 h each. The conductivity of the liposome solution was measured and was indistinguishable from the dialysis medium ˜40 μS/cm.
The lipid concentration is determined by measuring the cholesterol by HPLC using an Agilent 1100 HPLC with and Agilent Zorbax 5 um, […], Eclipse XDB-C8 column and a mobile phase of A=0.1% TFA, B=0.1% TFA/MeOH with an isocratic elution of 99% B. The flow rate is 1.0 mL/min, column temperature is 50° C., 10 μL injection and detection by absorbance at 205 nm. The retention time of cholesterol is 4.5 min. The liposome size is measured by dynamic light scattering.
Carfilzomib (Selleck Chemicals) was dissolved in DMSO at a concentration of 10 mg/mL. The carfilzomib was introduced to the liposomes at a carfilzomib to HSPC ratio of 100 g drug/mol HSPC (drug to total lipid ratio (wt/wt) of 0.12). The liposomes were diluted with 50 mM citrate, 10% sucrose pH 4.0 to increase the volume to a point where after addition of the drug the final DMSO concentration is 2%. The carfilzomib/DMSO was added to the diluted liposomes, which were mixed at room temperature then transferred to a 65° C. bath and swirled every 30 s for the first 3 min and then swirled every 5 min over a total heating time of 30 min. All samples were very cloudy when the drug was added and all became clear (same as liposomes with no drug added) after 15 min. After heating for 30 min all samples were placed on ice for 15 min. The loaded liposomes were vortexed and 100 μL of sample was kept as the “before column” and the rest transferred to microcentrifuge tubes and spun at 10,000 RPM for 5 min. The supernatants were purified on a Sephadex G25 column collected and analyzed by HPLC. The HPLC analysis of carfilzomib was performed on the same system as described for analysis of cholesterol. The mobile phase consists of A=0.1% TFA, B=0.1% TFA/MeOH with a gradient elution starting at 50% B and increasing to 83% B in 13 min with 7 min equilibration back to 50% B. The flow rate is 1.0 mL/min, column temperature is 30 C, 10 μl injection and detection by absorbance at 205 nm. The retention time of carfilzomib is 12.2 min. The lipid concentration is determined by analysis of the cholesterol by HPLC.

[1] = 250 mM ammonium sulfate liposomes, drug added at 100 g drug/mol HSPC

efficiency of remote loading (10 mg/mL DMSO solution added in 5 increments over 1 min while vortexing): 96.3%±1.09%
final drug to lipid ratio [1]: 95.26±3.47 g drug/mol of HSPC
loading efficiency [1]: 95.26±3.47%
final drug load (control liposomes with 250 mM sodium sulfate (no gradient), drug added at 100 g drug/mol HSPC): 33.28±0.79 g drug/mol of HSPC
loading capacity of remote loaded liposomes over sodium sulfate liposomes (input 100 g drug/mol HSPC): > 3 fold
efficiency of remote loading (trapping agent ammonium sulfate, 10 mg/mL DMSO solution added quickly): 97.0%±2.38%
SMILES: CC(C)C[C@H](NC(=O)[C@H](CCc1ccccc1)NC(=O)CN1CCOCC1)C(=O)N[C@@H](Cc1ccccc1)C(=O)N[C@@H](CC(C)C)C(=O)[C@@]1(C)CO1 [carfilzomib]
